Source: patent US20140378416A1, “SILYL-CONTAINING HETEROCYCLIC COMPOUNDS AND METHODS OF USE THEREOF FOR THE TREATMENT OF VIRAL DISEASES” (priority 2011, published 2014)

Tests used:
[1] = tested on: HCV replicon 1a Y93H; assay: Cell-based HCV replicon assay (TaqMan), genotype 1a Y93H mutant replicon; details: Hepatitis C virus, 72 h, read-out: 1a Y93H EC90, HCV 1a Y93H mutant replicon cells, replicon RNA by TaqMan on day 3; EC90 = concentration for ΔCT=3.2 over baseline
Description: (§1) Measurement of inhibition by compounds of the present invention was performed using the HCV replicon system. Several different replicons encoding different HCV genotypes or mutations were used. In addition, potency measurements were made using different formats of the replicon assay, including different ways of measurements and different plating formats. See Jan M. Vrolijk et al., A replicons-based bioassay for the measurement of interferons in patients with chronic hepatitis C, 110 J. VIROLOGICAL METHODS 201 (2003); Steven S. Carroll et al., Inhibition of Hepatitis C Virus RNA Replication by 2′-Modified Nucleoside Analogs, 278(14) J. BIOLOGICAL CHEMISTRY 11979 (2003). However, the underlying principles are common to all of these determinations, and are outlined below.
(§2) Compounds of the present invention were assayed for cell-based anti-HCV activity using the following protocol. Replicon cells were seeded at 5000 cells/well in 96-well collagen I-coated Nunc plates in the presence of the test compound. Various concentrations of test compound, typically in 10 serial 2-fold dilutions, were added to the assay mixture, with the starting concentration ranging from 250 μM to 1 μM. The final concentration of DMSO was 0.5%, fetal bovine serum was 5%, in the assay media. Cells were harvested on day 3 by the addition of 1× cell lysis buffer (Ambion cat #8721). The replicon RNA level was measured using real time PCR (TaqMan® assay). The amplicon was located in 5B. The PCR primers were: 5B.2F, ATGGACAGGCGCCCTGA (SEQ. ID NO. 1); 5B.2R, […] (SEQ. ID NO. 2); the probe sequence was FAM-labeled CACGCCATGCGCTGCGG (SEQ. ID NO. 3). GAPDH RNA was used as endogenous control and was amplified in the same reaction as NS5B (multiplex PCR) using primers and VIC-labeled probe recommended by the manufacturer (PE Applied Biosystem). The real-time […] reactions were run on ABI PRISM 7900HT Sequence Detection System using the following program: 48° C. for 30 minutes, 95° C. for 10 minutes, 40 cycles of 95° C. for 15 sec, 60° C. for 1 minute. The ACT values (CT5B-CTGAPDH) were plotted against the concentration of test compound and fitted to the sigmoid dose-response model using XLfit4 (MDL). EC50 was defined as the concentration of inhibitor necessary to achieve ΔCT=1 over the projected baseline; EC90 the concentration necessary to achieve ΔCT=3.2 over the baseline. Alternatively, to quantitate the absolute amount of replicon RNA, a standard curve was established by including serially diluted T7 transcripts of replicon RNA in the Taqman assay. All TaqMan® reagents were from PE Applied Biosystems. Such an assay procedure was described in detail in e.g. Malcolm et al., Antimicrobial Agents and Chemotherapy 50: 1013-1020 (2006).
(§3) HCV replicon EC50 assay data for various replicons and mutants was calculated for selected compounds of the present invention using this method and is provided in the tables above herein.

[2] = tested on: HCV replicon 1a; assay: Cell-based HCV replicon assay (TaqMan), genotype 1a replicon; details: Hepatitis C virus, 72 h, HCV 1a replicon cells, replicon RNA by TaqMan on day 3; EC90 = concentration for ΔCT=3.2 over baseline
Description: as §1, §2, §3

[3] = tested on: HCV replicon 2b; assay: Cell-based HCV replicon assay (TaqMan), genotype 2b replicon; details: Hepatitis C virus, 72 h, read-out: 2b EC90, HCV 2b replicon cells, replicon RNA by TaqMan on day 3; EC90 = concentration for ΔCT=3.2 over baseline
Description: as §1, §2, §3

[4] = tested on: HCV replicon 1b; assay: Cell-based HCV replicon assay (TaqMan), genotype 1b replicon; details: Hepatitis C virus, 72 h, HCV 1b replicon cells, replicon RNA by TaqMan on day 3; EC90 = concentration for ΔCT=3.2 over baseline
Description: as §1, §2, §3

| Compound | EC90 [1] | EC90 [2] | EC90 [3] | EC90 [4] |
| --- | --- | --- | --- | --- |
| COC(=O)N[C@H](C(=O)N1C[Si](C)(C)C[C@H]1c1ncc(-c2ccc(-c3ccc(-c4[nH]c([C@@H]5CCCN5C(=O)[C@@H](NC(=O)OC)C(C)C)nc4C4CC4)cc3)cc2)[nH]1)C(C)C [Compound 63] | 882 nM | 0.69 nM | 451 nM | – |
| CC(C)(C)OC(=O)N1C[Si](C)(C)C[C@H]1c1ncc(-c2ccc(-c3ccc(-c4cnc([C@@H]5C[C@H]6C[C@H]6N5C(=O)OC(C)(C)C)[nH]4)cc3)cc2)[nH]1 [Compound 46] | > 1000 nM | > 1000 nM | 422 nM | – |
| COC(=O)N[C@H](C(=O)N1C[C@H](F)C[C@H]1c1ncc(-c2ccc(C#Cc3ccc(-c4cnc([C@@H]5C[Si](C)(C)CN5C(=O)OC(C)(C)C)[nH]4)cc3)cc2)[nH]1)C(C)C [Compound 56] | > 1000 nM | 681 nM | – | – |
| COC(=O)N[C@H](C(=O)N1C[Si](C)(C)C[C@H]1c1ncc(-c2ccc(-c3ccc(-c4cnc([C@@H]5C[Si](C)(C)CN5C(=O)[C@@H](NC(=O)OC)C(C)C)[nH]4)cc3)cc2)[nH]1)C(C)C [Compound 6] | > 1000 nM | 0.98 nM | – | 0.015 nM |
| COC(=O)N[C@H](C(=O)N1C[Si](C)(C)C[C@H]1c1ncc(-c2ccc(-c3ccc(-c4cnc([C@@H]5[C@H]6CC[C@H](C6)N5C(=O)[C@@H](NC(=O)OC)C(C)C)[nH]4)cc3)cc2)[nH]1)C(C)C [Compound 5] | 203 nM | 0.21 nM | – | 0.004 nM |
| COC(=O)N[C@H](C(=O)N1C[Si](C)(C)C[C@H]1c1ncc(-c2ccc(-c3ccc(-c4[nH]c([C@@H]5C[C@H]6C[C@H]6N5C(=O)[C@@H](NC(=O)OC)C(C)C)nc4F)cc3)cc2)[nH]1)C(C)C [Compound 44] | 285 nM | 0.17 nM | 168 nM | – |
| C[Si]1(C)CN[C@H](c2ncc(-c3ccc(-c4ccc(-c5cnc([C@@H]6CCCN6)[nH]5)cc4)cc3)[nH]2)C1 [Compound 2] | – | > 100 nM | – | > 1000 nM |
| COC(=O)N[C@H](C(=O)N1CCC[C@H]1c1cnc(-c2ccc3c(c2)[Si](C)(C)c2cc(-c4cnc([C@@H]5CCCN5C(=O)[C@@H](NC(=O)OC)C(C)C)[nH]4)ccc2-3)[nH]1)C(C)C [Compound 82] | 811 nM | 0.076 nM | – | 0.043 nM |
| COC(=O)N[C@H](C(=O)N1C[C@H](F)C[C@H]1c1ncc(-c2ccc(C#Cc3ccc(-c4cnc([C@@H]5C[Si](C)(C)CN5)[nH]4)cc3)cc2)[nH]1)C(C)C [Compound 57] | > 1000 nM | 780 nM | – | – |
| COC(=O)N[C@H](C(=O)N1C[C@H](F)C[C@H]1c1ncc(-c2ccc(-c3ccc(-c4cnc([C@@H]5C[Si](C)(C)CN5C(=O)[C@@H](NC(=O)OC)C(C)C)[nH]4)cc3)cc2)[nH]1)C(C)C [Compound 7] | 229 nM | 0.77 nM | – | 0.009 nM |
| COC(=O)N[C@H](C(=O)N1C[Si]2(CCCC2)C[C@H]1c1cnc(-c2ccc(-c3ccc(-c4cnc([C@@H]5CCCN5C(=O)[C@@H](NC(=O)OC)C(C)C)[nH]4)cc3)cc2)[nH]1)C(C)C [Compound 73] | 973 nM | 0.38 nM | – | 0.006 nM |
| COC(=O)N[C@H](C(=O)N1CCC[C@H]1c1ncc(-c2ccc(-c3ccc(-c4cnc([C@@H]5C[Si](C)(C)CN5C(=O)[C@@H](NC(=O)OC)C(C)C)[nH]4)cc3)cc2)[nH]1)C(C)C [Compound 3] | 398 nM | 0.16 nM | – | 0.005 nM |
| C[Si]1(C)C[C@@H](c2ncc(-c3ccc(-c4ccc(-c5[nH]c([C@@H]6CCCN6C(=O)[C@H]6CCCO6)nc5Cl)cc4)cc3)[nH]2)N(C(=O)[C@H]2CCCO2)C1 [Compound 67] | 510 nM | 211 nM | > 1000 nM | – |
| CC(C)(C)OC(=O)N1C[Si](C)(C)C[C@H]1c1ncc(-c2ccc(-c3ccc(-c4ncc([C@@H]5C[C@H]6C[C@H]6N5C(=O)OC(C)(C)C)[nH]4)cc3)cc2)[nH]1 [Compound 68] | > 1000 nM | > 1000 nM | – | – |
